# PubChem BioAssay (NCI)
#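 GI50 marks 50% less growth. TGI: total growth inhibition.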
# Experiments:
# Test in all cases: growth of human tumour cells (NCI), 384-well format
# A498 renal = test system: A498 renal
# A549 NSCLC = test system: A549 NSCLC
# ACHN renal = test system: ACHN renal
# BT-549 breast = test system: BT-549 breast
# CAKI-1 renal = test system: CAKI-1 renal
# COLO 205 colon = test system: COLO 205 colon
# DU-145 prostate = test system: DU-145 prostate
# EKVX NSCLC = test system: EKVX NSCLC
# HCC-2998 colon = test system: HCC-2998 colon
# HCT-116 colon = test system: HCT-116 colon
# HCT-15 colon = test system: HCT-15 colon
# HL-60(TB) leukemia = test system: HL-60(TB) leukemia
# HOP-62 NSCLC = test system: HOP-62 NSCLC
# HOP-92 NSCLC = test system: HOP-92 NSCLC
# HS 578T breast = test system: HS 578T breast
# HT29 colon = test system: HT29 colon
# IGROV1 ovarian = test system: IGROV1 ovarian
# KM12 colon = test system: KM12 colon
# LOX IMVI melanoma = test system: LOX IMVI melanoma
# M14 melanoma = test system: M14 melanoma
# MALME-3M melanoma = test system: MALME-3M melanoma
# MCF7 breast = test system: MCF7 breast
# MDA-MB-231 breast = test system: MDA-MB-231 breast
# MDA-MB-435 melanoma = test system: MDA-MB-435 melanoma
# MDA-MB-468 breast = test system: MDA-MB-468 breast
# MOLT-4 leukemia = test system: MOLT-4 leukemia
# NCI-H226 lung = test system: NCI-H226 lung
# NCI-H23 lung = test system: NCI-H23 lung
# NCI-H322M lung = test system: NCI-H322M lung
# NCI-H460 NSCLC = test system: NCI-H460 NSCLC
# NCI-H522 lung = test system: NCI-H522 lung
# NCI/ADR-RES ovarian = test system: NCI/ADR-RES ovarian
# OVCAR-3 ovarian = test system: OVCAR-3 ovarian
# OVCAR-4 ovarian = test system: OVCAR-4 ovarian
# OVCAR-5 ovarian = test system: OVCAR-5 ovarian
# OVCAR-8 ovarian = test system: OVCAR-8 ovarian
# PC-3 prostate = test system: PC-3 prostate
# RPMI-8226 leukemia = test system: RPMI-8226 leukemia
# RXF 393 renal = test system: RXF 393 renal
# SF-268 CNS = test system: SF-268 CNS
# SF-295 CNS = test system: SF-295 CNS
# SF-539 CNS = test system: SF-539 CNS
# SK-MEL-28 melanoma = test system: SK-MEL-28 melanoma
# SK-MEL-5 melanoma = test system: SK-MEL-5 melanoma
# SK-OV-3 ovarian = test system: SK-OV-3 ovarian
# SN12C renal = test system: SN12C renal
# SNB-19 CNS = test system: SNB-19 CNS
# SNB-75 CNS = test system: SNB-75 CNS
# SR leukemia = test system: SR leukemia
# T-47D breast = test system: T-47D breast
# TK-10 renal = test system: TK-10 renal
# U251 glioblastoma = test system: U251 glioblastoma
# UACC-257 melanoma = test system: UACC-257 melanoma
# UACC-62 melanoma = test system: UACC-62 melanoma
structure (smiles),measurement,setting,value
N#CCNC(=O)c1ccc(-c2ccnc(Nc3ccc(N4CCOCC4)cc3)n2)cc1,GI50,A498 renal,1.14 µM
same,TGI,A498 renal,2.53 µM
same,GI50,A549 NSCLC,3.19 µM
same,TGI,A549 NSCLC,13.7 µM
same,GI50,ACHN renal,1.27 µM
same,TGI,ACHN renal,4.14 µM
same,GI50,BT-549 breast,1.15 µM
same,TGI,BT-549 breast,2.46 µM
same,GI50,CAKI-1 renal,1.23 µM
same,TGI,CAKI-1 renal,3.19 µM
same,GI50,COLO 205 colon,4.24 µM
same,TGI,COLO 205 colon,14.8 µM
same,GI50,DU-145 prostate,1.55 µM
same,TGI,DU-145 prostate,3.99 µM
same,GI50,EKVX NSCLC,2.93 µM
same,TGI,EKVX NSCLC,16.8 µM
same,GI50,HCC-2998 colon,1.93 µM
same,TGI,HCC-2998 colon,4.18 µM
same,GI50,HCT-116 colon,1.51 µM
same,TGI,HCT-116 colon,3.91 µM
same,GI50,HCT-15 colon,3.02 µM
same,TGI,HCT-15 colon,10.7 µM
same,GI50,HL-60(TB) leukemia,1.55 µM
same,TGI,HL-60(TB) leukemia,2.89 µM
same,GI50,HOP-62 NSCLC,1.81 µM
same,TGI,HOP-62 NSCLC,4.09 µM
same,GI50,HOP-92 NSCLC,6.94 µM
same,TGI,HOP-92 NSCLC,29 µM
same,GI50,HS 578T breast,1.32 µM
same,TGI,HS 578T breast,3.33 µM
same,GI50,HT29 colon,4.15 µM
same,TGI,HT29 colon,24.6 µM
same,GI50,IGROV1 ovarian,1.42 µM
same,TGI,IGROV1 ovarian,3.91 µM
same,GI50,KM12 colon,3.51 µM
same,TGI,KM12 colon,74.1 µM
same,GI50,LOX IMVI melanoma,1.7 µM
same,TGI,LOX IMVI melanoma,4.06 µM
same,GI50,M14 melanoma,6.27 µM
same,TGI,M14 melanoma,51.2 µM
same,GI50,MALME-3M melanoma,3.05 µM
same,TGI,MALME-3M melanoma,23.5 µM
same,GI50,MCF7 breast,2.24 µM
same,TGI,MCF7 breast,8.44 µM
same,GI50,MDA-MB-231 breast,1.89 µM
same,TGI,MDA-MB-231 breast,16.8 µM
same,GI50,MDA-MB-435 melanoma,4.02 µM
same,TGI,MDA-MB-435 melanoma,21.5 µM
same,GI50,MDA-MB-468 breast,1.37 µM
same,TGI,MDA-MB-468 breast,3.2 µM
same,GI50,MOLT-4 leukemia,2.07 µM
same,TGI,MOLT-4 leukemia,3.99 µM
same,GI50,NCI-H226 lung,1.43 µM
same,TGI,NCI-H226 lung,3.66 µM
same,GI50,NCI-H23 lung,2.33 µM
same,TGI,NCI-H23 lung,13.6 µM
same,GI50,NCI-H322M lung,2.72 µM
same,TGI,NCI-H322M lung,10.8 µM
same,GI50,NCI-H460 NSCLC,1.06 µM
same,TGI,NCI-H460 NSCLC,2.5 µM
same,GI50,NCI-H522 lung,1.64 µM
same,TGI,NCI-H522 lung,6.45 µM
same,GI50,NCI/ADR-RES ovarian,21.4 µM
same,TGI,NCI/ADR-RES ovarian,> 100 µM
same,GI50,OVCAR-3 ovarian,4.64 µM
same,TGI,OVCAR-3 ovarian,19 µM
same,GI50,OVCAR-4 ovarian,3.59 µM
same,TGI,OVCAR-4 ovarian,11.1 µM
same,GI50,OVCAR-5 ovarian,2.63 µM
same,TGI,OVCAR-5 ovarian,5.71 µM
same,GI50,OVCAR-8 ovarian,3.68 µM
same,TGI,OVCAR-8 ovarian,17.6 µM
same,GI50,PC-3 prostate,2.9 µM
same,TGI,PC-3 prostate,11.8 µM
same,GI50,RPMI-8226 leukemia,1.23 µM
same,TGI,RPMI-8226 leukemia,2.87 µM
same,GI50,RXF 393 renal,1.61 µM
same,TGI,RXF 393 renal,3.26 µM
same,GI50,SF-268 CNS,2.12 µM
same,TGI,SF-268 CNS,6.6 µM
same,GI50,SF-295 CNS,4.06 µM
same,TGI,SF-295 CNS,17 µM
same,GI50,SF-539 CNS,2.12 µM
same,TGI,SF-539 CNS,10 µM
same,GI50,SK-MEL-28 melanoma,6.23 µM
same,TGI,SK-MEL-28 melanoma,50.8 µM
same,GI50,SK-MEL-5 melanoma,2.16 µM
same,TGI,SK-MEL-5 melanoma,9.34 µM
same,GI50,SK-OV-3 ovarian,2.73 µM
same,TGI,SK-OV-3 ovarian,20.7 µM
same,GI50,SN12C renal,0.787 µM
same,TGI,SN12C renal,3.94 µM
same,GI50,SNB-19 CNS,7.84 µM
same,TGI,SNB-19 CNS,28.3 µM
same,GI50,SNB-75 CNS,2.52 µM
same,TGI,SNB-75 CNS,15.5 µM
same,GI50,SR leukemia,0.468 µM
same,TGI,SR leukemia,1.29 µM
same,GI50,T-47D breast,11 µM
same,TGI,T-47D breast,39.9 µM
same,GI50,TK-10 renal,1.25 µM
same,TGI,TK-10 renal,3.27 µM
same,GI50,U251 glioblastoma,2.28 µM
same,TGI,U251 glioblastoma,5.9 µM
same,GI50,UACC-257 melanoma,3.19 µM
same,TGI,UACC-257 melanoma,8.82 µM
same,GI50,UACC-62 melanoma,3.57 µM
same,TGI,UACC-62 melanoma,15.3 µM
COc1ccc(COc2cc3oc(=O)c4cc(C(C)O)ccc4c3cc2OC)cc1 (centres undefined),GI50,A498 renal,12.2 µM
same,TGI,A498 renal,35 µM
same,GI50,A549 NSCLC,18.6 µM
same,TGI,A549 NSCLC,> 100 µM
same,GI50,ACHN renal,23 µM
same,TGI,ACHN renal,61.2 µM
same,GI50,BT-549 breast,6.81 µM
same,TGI,BT-549 breast,20.5 µM
same,GI50,CAKI-1 renal,18.6 µM
same,TGI,CAKI-1 renal,60.8 µM
same,GI50,COLO 205 colon,> 100 µM
same,TGI,COLO 205 colon,> 100 µM
same,GI50,DU-145 prostate,41.6 µM
same,TGI,DU-145 prostate,> 100 µM
same,GI50,EKVX NSCLC,12.2 µM
same,TGI,EKVX NSCLC,43.2 µM
same,GI50,HCC-2998 colon,14.6 µM
same,TGI,HCC-2998 colon,> 100 µM
same,GI50,HCT-116 colon,9.41 µM
same,TGI,HCT-116 colon,> 100 µM
same,GI50,HCT-15 colon,3.57 µM
same,TGI,HCT-15 colon,> 100 µM
same,GI50,HOP-62 NSCLC,8.11 µM
same,TGI,HOP-62 NSCLC,24.5 µM
same,GI50,HOP-92 NSCLC,11.3 µM
same,TGI,HOP-92 NSCLC,30.1 µM
same,GI50,HS 578T breast,5.56 µM
same,TGI,HS 578T breast,19.3 µM
same,GI50,HT29 colon,6.91 µM
same,TGI,HT29 colon,> 100 µM
same,GI50,IGROV1 ovarian,15.3 µM
same,TGI,IGROV1 ovarian,35.7 µM
same,GI50,KM12 colon,8.27 µM
same,TGI,KM12 colon,> 100 µM
same,GI50,LOX IMVI melanoma,17 µM
same,TGI,LOX IMVI melanoma,> 100 µM
same,GI50,M14 melanoma,8.95 µM
same,TGI,M14 melanoma,> 100 µM
same,GI50,MALME-3M melanoma,15.8 µM
same,TGI,MALME-3M melanoma,> 100 µM
same,GI50,MCF7 breast,5.21 µM
same,TGI,MCF7 breast,22.2 µM
same,GI50,MDA-MB-231 breast,20.3 µM
same,TGI,MDA-MB-231 breast,77.5 µM
same,GI50,MDA-MB-435 melanoma,2.09 µM
same,TGI,MDA-MB-435 melanoma,4.71 µM
same,GI50,MDA-MB-468 breast,4.9 µM
same,TGI,MDA-MB-468 breast,25.2 µM
same,GI50,MOLT-4 leukemia,5.6 µM
same,TGI,MOLT-4 leukemia,> 100 µM
same,GI50,NCI-H226 lung,15.2 µM
same,TGI,NCI-H226 lung,33.8 µM
same,GI50,NCI-H23 lung,11.9 µM
same,TGI,NCI-H23 lung,36.9 µM
same,GI50,NCI-H322M lung,20.4 µM
same,TGI,NCI-H322M lung,71.4 µM
same,GI50,NCI-H460 NSCLC,5.65 µM
same,TGI,NCI-H460 NSCLC,85.9 µM
same,GI50,NCI-H522 lung,5.04 µM
same,TGI,NCI-H522 lung,16.4 µM
same,GI50,NCI/ADR-RES ovarian,4.8 µM
same,TGI,NCI/ADR-RES ovarian,59.4 µM
same,GI50,OVCAR-3 ovarian,10.1 µM
same,TGI,OVCAR-3 ovarian,24.7 µM
same,GI50,OVCAR-4 ovarian,3.41 µM
same,TGI,OVCAR-4 ovarian,12.3 µM
same,GI50,OVCAR-5 ovarian,61.2 µM
same,TGI,OVCAR-5 ovarian,> 100 µM
same,GI50,OVCAR-8 ovarian,12.6 µM
same,TGI,OVCAR-8 ovarian,54.2 µM
same,GI50,PC-3 prostate,24.9 µM
same,TGI,PC-3 prostate,93.1 µM
same,GI50,RPMI-8226 leukemia,16.3 µM
same,TGI,RPMI-8226 leukemia,> 100 µM
same,GI50,RXF 393 renal,5.55 µM
same,TGI,RXF 393 renal,19.5 µM
same,GI50,SF-268 CNS,4.6 µM
same,TGI,SF-268 CNS,16 µM
same,GI50,SF-295 CNS,10.4 µM
same,TGI,SF-295 CNS,30.6 µM
same,GI50,SF-539 CNS,7.79 µM
same,TGI,SF-539 CNS,20.6 µM
same,GI50,SK-MEL-28 melanoma,55.3 µM
same,TGI,SK-MEL-28 melanoma,> 100 µM
same,GI50,SK-MEL-5 melanoma,3.62 µM
same,TGI,SK-MEL-5 melanoma,12.5 µM
same,GI50,SK-OV-3 ovarian,3.89 µM
same,TGI,SK-OV-3 ovarian,21.2 µM
same,GI50,SN12C renal,20 µM
same,TGI,SN12C renal,90.1 µM
same,GI50,SNB-19 CNS,7.73 µM
same,TGI,SNB-19 CNS,20.8 µM
same,GI50,SNB-75 CNS,6.65 µM
same,TGI,SNB-75 CNS,20.3 µM
same,GI50,SR leukemia,1.87 µM
same,TGI,SR leukemia,5.69 µM
same,GI50,T-47D breast,10.6 µM
same,TGI,T-47D breast,61.5 µM
same,GI50,TK-10 renal,10.5 µM
same,TGI,TK-10 renal,25.6 µM
same,GI50,U251 glioblastoma,7.43 µM
same,TGI,U251 glioblastoma,24.8 µM
same,GI50,UACC-257 melanoma,24.3 µM
same,TGI,UACC-257 melanoma,94.6 µM
same,GI50,UACC-62 melanoma,8.49 µM
same,TGI,UACC-62 melanoma,22.8 µM
